What was measured:
[1] = system: HBV viral production in AD38 cells; assay: Viral load production in AD38 cells by quantitative PCR of the HBV core sequence in supernatant; format: cell-based; details: Hepatitis B virus, 144 h; 10 μM compound, 6 days at 37° C., viral load in supernatant compared against DMSO control wells; read-out: AD38 Viral Load (CpAM/DMSO %) at 10 μM
In short: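 Read-out is TaqMan qPCR of the HBV core region in supernatant, quantitated against standards and referenced to DMSO controls (≥3 per plate). Cells: AD38 at 50,000/well, exposed to compound (added as 10× stock in 10% DMSO) for 6 days at 37° C.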

AD38 cells = assay: Viability of AD38 cells (Promega CellTiter-Glo) at the end of compound treatment; format: cell-based; details: 10 μM compound, 6 days, luminescence normalized against DMSO control wells (controls being 100%)
In short: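 Luminescent CellTiter-Glo read-out, taken after supernatant was swapped for tetracycline-free 2% FBS medium with 1% DMSO, gave percent viability relative to DMSO controls set at 100%. Cells were plated at 50,000/well and exposed to compound, added as a 10× stock in 10% DMSO, for 6 days at 37° C.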

Structure (SMILES)	activity at 10 µM [1]	AD38 Viability Normalized Result (CPAM/DMSO %) at 10 μM (AD38 cells)
O=C(O)c1ccc(-c2cccc(NC(=O)c3ccc4c(c3)NC(=O)c3cc(F)ccc3S4)c2)cc1 [Compound 1419, 3′-(2-fluoro-11-oxo-10, 11-dihydrodibenzo [b,f] [1,4]thiazepine-8-carboxamido)-[1, 1′-biphenyl]-4-carboxylic acid]	113%	89%
COC(=O)c1ccc(-c2cccc(NC(=O)c3ccc4c(c3)NC(=O)c3cc(F)ccc3S4)c2)cc1 [Compound 1420, Methyl 3′-(2-fluoro-11-oxo-10, 11-dihydrodibenzo [b,f] [1,4]thiazepine-8-carboxamido)-[1,1′-biphenyl]-4-carboxylate]	29%	86%
O=C(O)c1cccc(-c2cccc(NC(=O)c3ccc4c(c3)NC(=O)c3cc(F)ccc3S4)c2)c1 [Compound 1421, 3′-(2-fluoro-11-oxo-10, 11-dihydrodibenzo [b,f] [1,4]thiazepine-8-carboxamido)-[1, 1′-biphenyl]-3-carboxylic acid]	78%	95%
COC(=O)c1cccc(-c2cccc(NC(=O)c3ccc4c(c3)NC(=O)c3cc(F)ccc3S4)c2)c1 [Compound 1422, Methyl 3′-(2-fluoro-11-oxo-10, 11-dihydrodibenzo [b,f] [1,4]thiazepine-8-carboxamido)-[1, 1′-biphenyl]-3-carboxylate]	64%	95%
O=C(NCCc1cncnc1)c1ccc2c(c1)NC(=O)c1ccccc1[S+]2[O-] (stereo not drawn) [Compound 1423]	37%	91%
CCOC(=O)C(NC(=O)c1ccc2c(c1)NC(=O)c1cc(F)ccc1S2)c1ccccn1 (stereo not drawn) [Compound 1424]	65%	96%
O=C(NCc1cccnc1)c1ccc2c(c1)NC(=O)c1ccccc1[S+]2[O-] (stereo not drawn) [Compound 1427]	7%	85%
O=C(NCc1cncnc1)c1cc2c(cc1F)Sc1ccccc1C(=O)N2 [Compound 1428]	28%	93%
O=C(NCc1cncs1)c1cc2c(cc1F)Sc1ccccc1C(=O)N2 [Compound 1429]	38%	90%
O=C(NCc1cnco1)c1cc2c(cc1F)Sc1ccccc1C(=O)N2 [Compound 1430]	56%	92%
O=C1Nc2cc(S(=O)(=O)N3CCC(O)CC3)ccc2Sc2ccccc21 [Compound 1431]	115%	92%
O=C1Nc2cc(S(=O)(=O)N3CCCC3)ccc2Sc2ccccc21 [Compound 1432]	79%	91%
O=C1Nc2cc(S(=O)(=O)N3CCC(O)C3)ccc2Sc2ccccc21 (stereo not drawn) [Compound 1433]	82%	94%
O=C1Nc2cc(S(=O)(=O)N3CC(O)C3)ccc2Sc2ccccc21 [Compound 1434]	85%	96%
O=C(Nc1cccc(-c2ccccc2C(=O)O)c1)c1ccc2c(c1)NC(=O)c1cc(F)ccc1S2 [Compound 1435, 3′-(2-fluoro-11-oxo-10, 11-dihydrodibenzo [b,f] [1,4]thiazepine-8-carboxamido)-[1, 1′-biphenyl]-2-carboxylic acid]	77%	99%
COC(=O)c1ccccc1-c1cccc(NC(=O)c2ccc3c(c2)NC(=O)c2cc(F)ccc2S3)c1 [Compound 1436, Methyl 3′-(2-fluoro-11-oxo-10, 11-dihydrodibenzo [b,f] [1,4]thiazepine-8-carboxamido)-[1, 1′-biphenyl]-2-carboxylate]	10%	104%
O=C(Nc1cccc(-c2cncnc2)c1)c1ccc2c(c1)NC(=O)c1cc(F)ccc1S2 [Compound 1440]	71%	91%
O=C(Nc1cccc(-c2cncs2)c1)c1ccc2c(c1)NC(=O)c1cc(F)ccc1S2 [Compound 1441]	28%	90%
O=C(Nc1nncs1)c1ccc2c(c1)NC(=O)c1cc(F)ccc1S2 [Compound 1442]	65%	99%
O=C(Nc1ncc(Cl)s1)c1ccc2c(c1)NC(=O)c1cc(F)ccc1S2 [Compound 1443]	64%	95%
O=C(Nc1ccncc1)c1ccc2c(c1)NC(=O)c1ccccc1S2 [Compound 1444]	6%	65%

Structure (SMILES)	activity at 10 µM [1]	AD38 Viability Normalized Result (CPAM/DMSO %) at 10 μM (AD38 cells)
O=C(Nc1cccc(-c2ccccc2)c1)c1ccc2c(c1)NC(=O)c1ccccc1S2 [Compound 1445]	24%	38%
O=C(NCc1cncnc1)c1ccc2c(c1)NC(=O)c1ccccc1S2(=O)=O [Compound 1446]	3%	84%
O=C(NCCc1ccccn1)c1ccc2c(c1)NC(=O)c1ccccc1S2(=O)=O [Compound 1447]	1%	85%
O=C(NCCc1cccnc1)c1ccc2c(c1)NC(=O)c1ccccc1S2(=O)=O [Compound 1448]	3%	85%
O=C(NCc1cccnc1)c1ccc2c(c1)NC(=O)c1ccccc1S2(=O)=O [Compound 1449]	2%	86%
CC(C)NS(=O)(=O)c1ccc2c(c1)NC(=O)c1ccccc1S2 [Compound 1450]	73%	94%
O=C(Nc1cccc(-c2ccncn2)c1)c1ccc2c(c1)NC(=O)c1cc(F)ccc1S2 [Compound 1451]	30%	92%
COc1cccc(-c2cccc(NC(=O)c3ccc4c(c3)NC(=O)c3cc(F)ccc3S4)c2)c1 [Compound 1452]	15%	62%
O=C(Nc1cccc(-c2ccc(O)cc2)c1)c1ccc2c(c1)NC(=O)c1cc(F)ccc1S2 [Compound 1453]	48%	97%
O=C(Nc1nc(-c2ccccc2)co1)c1ccc2c(c1)NC(=O)c1cc(F)ccc1S2 [Compound 1454]	27%	95%
O=C(NCc1cncs1)c1ccc2c(c1)NC(=O)c1ccccc1S2(=O)=O [Compound 1455]	3%	89%
O=C(NCc1cnco1)c1ccc2c(c1)NC(=O)c1ccccc1S2(=O)=O [Compound 1456]	15%	101%
O=C(NCCc1cncnc1)c1ccc2c(c1)NC(=O)c1ccccc1S2(=O)=O [Compound 1457]	28%	92%
O=C(Nc1cccc(-c2ccccc2)c1)c1ccc2c(c1)NC(=O)c1ccccc1S2(=O)=O [Compound 1458]	12%	49%
Cc1c(C(=O)NCCc2ccccn2)ccc2c1NC(=O)c1ccccc1S2 [Compound 1459]	4%	92%
O=C(Nc1ccncc1)c1ccc2c(c1)NC(=O)c1ccccc1S2(=O)=O [Compound 1462]	35%	99%
O=C(Nc1ccncc1)c1ccc2c(c1)NC(=O)c1c(F)cccc1S2 [Compound 1463]	31%	97%
O=C(NCCc1cncnc1)c1ccc2c(c1)NC(=O)c1ccccc1N2Cc1ccccc1 [Compound 1464]	49%	98%
O=C(NCCc1ccc(-c2ccccc2)cc1)c1ccc2c(c1)NC(=O)c1c(F)cccc1S2 [Compound 1465]	39%	106%
O=C(NCCc1ccc(-c2ccccc2)cc1)c1ccc2c(c1)NC(=O)c1cccc(F)c1S2 [Compound 1466]	7%	88%
Cc1c(C(=O)NCCc2cccnc2)ccc2c1NC(=O)c1ccccc1S2 [Compound 1467]	1%	92%
